Five compounds from ChEMBL document CHEMBL3244053, “Structural modification study of bis(substituted aminoalkylamino)anthraquinones. An evaluation of the relationship of the [2-[(2-hydroxyethyl)amino]ethyl]amino side chain with antineoplastic activity” (1979) can be followed below.

The subject of assay [1] is B16. As to the kind of experiment: Antineoplastic activity against mouse B16 cells allografted in BDF1 mouse at 50 mg/kg qd for 9 days relative to control. Format: functional.
Assay [2] has as its system L1210. The assay is described as follows: Antineoplastic activity against mouse L1210 cells allografted in CDF1 mouse at 25 mg/kg qd for 9 days relative to control. It is filed as functional.
In assay [3] the test system is L1210. As to the kind of experiment: Antineoplastic activity against mouse L1210 cells allografted in CDF1 mouse assessed as survival at 25 mg/kg qd for 9 days. It is filed as functional, organism-based. On the set-up: dose 25 mg/kg.
In assay [4] the test system is B16. The assay is described as follows: Antineoplastic activity against mouse B16 cells allografted in BDF1 mouse at 100 mg/kg qd for 9 days relative to control. Format: functional.
Assay [5] concerns P388. As to the kind of experiment: Antineoplastic activity against mouse P388 cells allografted in CDF1 mouse assessed as survival at 100 mg/kg qd for 9 days. On the set-up: dose 100 mg/kg. Format: functional, organism-based.
Assay [6] relates to B16. The assay is described as follows: Antineoplastic activity against mouse B16 cells allografted in BDF1 mouse assessed as survival at 100 mg/kg qd for 9 days. Format: functional, organism-based. Further details: dose 100 mg/kg.
Assay [7] has as its system B16. The assay is described as follows: Antineoplastic activity against mouse B16 cells allografted in BDF1 mouse assessed as survival at 50 mg/kg qd for 9 days. It is filed as functional, organism-based. On the set-up: dose 50 mg/kg.
Assay [8] relates to P388. The assay is described as follows: Antineoplastic activity against mouse P388 cells allografted in CDF1 mouse at 100 mg/kg qd for 9 days relative to control. Format: functional.
Assay [9] has as its system P388. The assay is described as follows: Antineoplastic activity against mouse P388 cells allografted in CDF1 mouse assessed as survival at 50 mg/kg qd for 9 days. It is filed as functional, organism-based. Further details: dose 50 mg/kg.
For assay [10], the system named is P388. As to the kind of experiment: Antineoplastic activity against mouse P388 cells allografted in CDF1 mouse at 50 mg/kg qd for 9 days relative to control. Format: functional.
The test system of assay [11] is P388. As to the kind of experiment: Antineoplastic activity against mouse P388 cells allografted in CDF1 mouse assessed as survival at 12.5 mg/kg qd for 9 days. Format: functional, organism-based. Further details: dose 12.5 mg/kg.
Assay [12] concerns P388. The assay is described as follows: Antineoplastic activity against mouse P388 cells allografted in CDF1 mouse at 12.5 mg/kg qd for 9 days relative to control. It is filed as functional.
The subject of assay [13] is P388. As to the kind of experiment: Antineoplastic activity against mouse P388 cells allografted in CDF1 mouse assessed as survival at 6.25 mg/kg qd for 9 days. Format: functional, organism-based. Further details: dose 6.25 mg/kg.
Assay [14] has as its system P388. As to the kind of experiment: Antineoplastic activity against mouse P388 cells allografted in CDF1 mouse at 6.25 mg/kg qd for 9 days relative to control. Format: functional.

Active and inactive are the calls of the source. No cut-off for these calls is given here.

As usually defined, the T/C is the result in the treated group divided by that in the control group, in per cent. For the compound `OCCNCCNc1ccnc2cc(Cl)ccc12`, the T/C in the assay with B16 [1] is listed as 99%; in the assay on L1210 [2] it was 111%; in the assay with B16 [4] it was 110%; with P388 [8], 118%; in the assay on P388 [10], 116%. Besides, the result with L1210 [3], in the assay with P388 [5], in the assay on B16 [6], in the assay with B16 [7] and with P388 [9] was Active.

In the case of `CN(C)CCC1=CC(=O)c2ccccc2C1=O`, the T/C in the assay with P388 [8] was 97%; in the assay on P388 [10], 100%. Moreover, in the assay on P388 [9], the result was Active.

For the compound `CN(C)CCC1=C(Cl)C(=O)c2ccccc2C1=O`, the outcome in the assay on P388 [11] and in the assay on P388 [13] was Active. For the same compound, the T/C in the assay with P388 [12] was found to be 97%; with P388 [14], 94%.

Take `O=C1C=C(NCCNCCO)C(=O)c2ccccc21`: the T/C is reported as 93% with P388 [8] and 103% with P388 [10].

With `CCN(CC)CCC1=C(Cl)C(=O)c2ccccc2C1=O`, the result with P388 [11] and with P388 [13] was Active. Besides, the T/C with P388 [12] is 101%; in the assay with P388 [14] it was 96%.
